Activity and IC50 data for 34 molecules are collected here from ChEMBL document CHEMBL1759979, “Impact of aryloxy-linked quinazolines: a novel series of selective VEGFR-2 receptor tyrosine kinase inhibitors” (Bioorg Med Chem Lett, 2011).

Test [1] concerns MCF7. As to the kind of experiment: Antiproliferative activity against human MCF7 cells after 72 hrs by MTS assay. Type of test: functional. The arrangement: concentration or dose not given beside the values. (Tetrazolium assays rely on reduction of a dye to a coloured formazan, in cell work by metabolically active cells.)
In test [2] the target is T1, Vascular endothelial growth factor receptor 2 (Homo sapiens, UniProt P35968). As to the kind of experiment: Inhibition of recombinant human VEGFR-2-mediated poly(Glu4Tyr) phosphorylation after 1 hr.
For test [3], the target named is Epidermal growth factor receptor (Homo sapiens, UniProt P00533). As to the kind of experiment: Inhibition of human EGFR-mediated poly(Glu4Tyr) phosphorylation after 1 hr.
In test [4] the test system is PC-3. As to the kind of experiment: Antiproliferative activity against human PC3 cells after 72 hrs by MTS assay. Type of test: functional. The arrangement: concentration or dose not given beside the values.
For test [5], the system named is HT-29. As to the kind of experiment: Antiproliferative activity against human HT-29 cells at 10 uM after 72 hrs by MTS assay. The conditions noted are these: HT-29, 72 h. It counts as functional, cell-based.
A short description of test [6]: Antiproliferative activity against human EAhy926 cells after 72 hrs by MTS assay. It counts as functional, EA.hy 926. On the set-up: concentration or dose not given beside the values.
In test [7] the test system is HT-29. As to the kind of experiment: Antiproliferative activity against human HT-29 cells after 72 hrs by MTS assay. Type of test: functional. On the set-up: concentration or dose not given beside the values.
A short description of test [8]: Antiproliferative activity against human EAhy926 cells at 10 uM after 72 hrs by MTS assay. It counts as functional, cell-based. The conditions noted are these: EA.hy 926, 72 h.
Test [9] concerns the target T1, Vascular endothelial growth factor receptor 2. As to the kind of experiment: Inhibition of KDR.
In test [10] the test system is PC-3. As to the kind of experiment: Antiproliferative activity against human PC3 cells at 10 uM after 72 hrs by MTS assay. Type of test: functional, cell-based. The conditions noted are these: PC-3, 72 h.
Test [11] relates to MCF7. As to the kind of experiment: Antiproliferative activity against human MCF7 cells at 10 uM after 72 hrs by MTS assay. The conditions noted are these: MCF7, 72 h.

SMILES strings stand for the structures.

Chain of Epidermal growth factor receptor (P00533 whole entry): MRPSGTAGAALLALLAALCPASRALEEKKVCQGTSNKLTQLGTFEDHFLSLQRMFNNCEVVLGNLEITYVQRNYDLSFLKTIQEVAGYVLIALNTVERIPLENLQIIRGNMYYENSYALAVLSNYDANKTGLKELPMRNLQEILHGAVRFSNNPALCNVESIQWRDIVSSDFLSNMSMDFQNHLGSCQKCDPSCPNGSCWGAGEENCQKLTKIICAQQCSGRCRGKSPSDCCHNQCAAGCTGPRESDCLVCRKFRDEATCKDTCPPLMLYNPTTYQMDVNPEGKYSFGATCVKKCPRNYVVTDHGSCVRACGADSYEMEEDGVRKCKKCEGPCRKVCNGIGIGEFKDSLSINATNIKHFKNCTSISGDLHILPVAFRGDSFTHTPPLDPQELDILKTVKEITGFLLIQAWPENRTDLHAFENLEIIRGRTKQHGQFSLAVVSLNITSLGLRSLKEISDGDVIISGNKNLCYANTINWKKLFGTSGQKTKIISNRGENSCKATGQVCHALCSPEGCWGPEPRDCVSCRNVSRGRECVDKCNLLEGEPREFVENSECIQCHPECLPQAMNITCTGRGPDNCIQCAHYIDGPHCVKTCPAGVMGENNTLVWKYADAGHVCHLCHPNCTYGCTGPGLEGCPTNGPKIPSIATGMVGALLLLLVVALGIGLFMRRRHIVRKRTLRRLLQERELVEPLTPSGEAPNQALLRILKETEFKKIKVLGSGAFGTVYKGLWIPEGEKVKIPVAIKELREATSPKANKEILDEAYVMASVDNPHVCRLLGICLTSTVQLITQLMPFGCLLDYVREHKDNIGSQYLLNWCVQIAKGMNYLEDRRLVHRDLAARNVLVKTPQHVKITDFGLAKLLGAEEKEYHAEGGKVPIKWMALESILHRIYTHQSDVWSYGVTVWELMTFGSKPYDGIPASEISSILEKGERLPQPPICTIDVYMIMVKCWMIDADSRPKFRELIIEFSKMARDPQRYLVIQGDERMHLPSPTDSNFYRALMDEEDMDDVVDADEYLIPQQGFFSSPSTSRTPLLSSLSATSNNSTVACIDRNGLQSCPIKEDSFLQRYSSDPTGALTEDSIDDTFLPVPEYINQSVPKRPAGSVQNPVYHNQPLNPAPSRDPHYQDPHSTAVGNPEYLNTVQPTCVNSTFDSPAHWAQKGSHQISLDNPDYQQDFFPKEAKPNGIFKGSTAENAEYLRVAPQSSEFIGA
T1 sequence (P35968 whole entry): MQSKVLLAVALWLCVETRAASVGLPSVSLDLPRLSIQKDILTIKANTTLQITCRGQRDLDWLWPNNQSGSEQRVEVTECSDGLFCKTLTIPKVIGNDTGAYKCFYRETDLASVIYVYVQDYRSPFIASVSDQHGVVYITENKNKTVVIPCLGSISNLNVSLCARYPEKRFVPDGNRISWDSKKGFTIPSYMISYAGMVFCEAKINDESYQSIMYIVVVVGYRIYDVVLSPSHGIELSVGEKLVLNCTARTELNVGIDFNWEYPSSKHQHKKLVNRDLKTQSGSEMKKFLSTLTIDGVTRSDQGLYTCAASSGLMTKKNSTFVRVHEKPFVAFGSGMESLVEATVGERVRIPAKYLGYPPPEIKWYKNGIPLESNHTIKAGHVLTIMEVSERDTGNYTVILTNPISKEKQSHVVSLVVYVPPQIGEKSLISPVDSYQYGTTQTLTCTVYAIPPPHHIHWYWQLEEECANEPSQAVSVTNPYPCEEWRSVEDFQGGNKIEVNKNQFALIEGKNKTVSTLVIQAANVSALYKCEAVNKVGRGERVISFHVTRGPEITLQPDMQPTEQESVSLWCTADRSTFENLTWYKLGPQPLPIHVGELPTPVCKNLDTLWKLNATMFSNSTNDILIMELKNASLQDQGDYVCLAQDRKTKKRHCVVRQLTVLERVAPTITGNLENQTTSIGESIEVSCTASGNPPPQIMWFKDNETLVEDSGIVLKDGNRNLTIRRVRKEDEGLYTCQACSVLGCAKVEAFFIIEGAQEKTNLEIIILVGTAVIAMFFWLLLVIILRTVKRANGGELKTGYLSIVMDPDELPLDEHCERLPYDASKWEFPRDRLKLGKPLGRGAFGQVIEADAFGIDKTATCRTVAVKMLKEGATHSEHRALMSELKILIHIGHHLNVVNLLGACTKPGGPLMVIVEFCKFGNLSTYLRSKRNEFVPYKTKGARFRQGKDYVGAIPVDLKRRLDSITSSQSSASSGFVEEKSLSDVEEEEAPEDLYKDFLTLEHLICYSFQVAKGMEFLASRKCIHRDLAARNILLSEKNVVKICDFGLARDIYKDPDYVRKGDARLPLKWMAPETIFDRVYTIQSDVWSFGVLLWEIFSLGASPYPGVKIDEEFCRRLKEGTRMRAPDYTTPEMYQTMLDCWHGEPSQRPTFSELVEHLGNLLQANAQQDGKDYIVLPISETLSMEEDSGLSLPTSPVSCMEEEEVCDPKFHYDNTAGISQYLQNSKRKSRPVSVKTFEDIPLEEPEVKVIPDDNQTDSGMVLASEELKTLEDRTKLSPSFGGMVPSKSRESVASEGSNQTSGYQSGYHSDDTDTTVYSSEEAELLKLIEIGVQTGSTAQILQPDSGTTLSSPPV

With `COc1cc2ncnc(Oc3ccc(F)c(Cl)c3)c2cc1OC`, the Activity in [1] is 0%; in test [4] it was 5%. Besides, the IC50 in test [2] was 9.5 µM; in test [3], above 10 µM; in test [5] it was 4.07 µM.
In the case of `COc1ccc(NC(=O)Nc2cccc(N(C)c3ncnc4cc(OC)c(OC)cc34)c2)cc1`, the Activity in test [1], in test [4], in [6] and in test [7] was 0% each time.
As to `COc1cc2ncnc(Oc3ccc(Br)c(F)c3)c2cc1OC`, in test [3], the IC50 came to 5.9 µM.
As for `COc1cc2ncnc(N(C)c3cccc(NC(=O)Nc4ccccc4)c3)c2cc1OC`, the Activity in test [1], in [4], in test [6] and in test [7] was 0% each time.
In [4], `COc1cc2ncnc(Nc3cccc(Br)c3)c2cc1OC` had an Activity of 40%. For the same molecule, in test [8], the IC50 was found to be 7.1 µM.
`COc1cc2ncnc(Oc3ccc(NC(=O)Nc4ccc(F)c(Cl)c4)cc3)c2cc1OC` registered an IC50 in test [3] above 10 µM.
For `COc1cc2/c(=N/c3ccc(Br)cc3F)nc[nH]c2cc1OCC1CCN(C)CC1` [VANDETANIB], the results for the Activity in [1] and in [4] were 26% and 33%, respectively. Besides, the IC50 in test [5] was found to be 4.2 µM; in test [8], 5.1 µM.
In the case of `COc1cc2ncnc(Oc3ccc(NC(=O)NC4CCCCC4)cc3)c2cc1OC`, the IC50 in test [3] is above 10 µM.
Still for that read-out and setting: the figure for `COc1cc2ncnc(Nc3ccc(NC(=O)Nc4ccccc4)cc3)c2cc1OC` is above 10 µM.
Take `COC(=O)Nc1ccc(Nc2ncnc3cc(OC)c(OC)cc23)cc1`: the Activity in test [1] is listed as 27%; in [4], 2%; in [6], 0%; in test [7], 10%. For the same molecule, in test [2], the 50% inhibitory concentration (IC50) stood at 5.8 µM.
For `COc1cc2ncnc(Oc3ccc(NC(=O)Nc4ccc(F)cc4F)cc3)c2cc1OC`, the IC50 in [3] was above 10 µM.
For `CCOC(=O)Nc1ccc(Nc2ncnc3cc(OC)c(OC)cc23)cc1`, the Activity is 6% in test [1], 12% in test [4], 0% in [6] and 16% in [7]. The IC50 in [2] was 5.6 µM; in [3] it was above 10 µM.
Turning to `COc1ccc(NC(=O)Nc2ccc(Oc3ncnc4cc(OC)c(OC)cc34)cc2)cc1`, the Activity is listed as 0% in test [1], 12% in [4], 24% in test [6] and 9% in [7]. The IC50 is 0.07 µM in test [2], above 10 µM in [3] and 0.07 µM in test [9].
As for `CCOC(=O)Nc1ccc(Oc2ncnc3cc(OC)c(OC)cc23)cc1`, the IC50 in test [3] was above 10 µM.
Regarding `COc1cc2ncnc(Oc3ccc(NC(=O)Nc4ccccc4)cc3)c2cc1OC`, the Activity worked out at 12% in test [1], 23% in test [4], 15% in test [6] and 12% in [7]. For the same molecule, the results for the IC50 in test [2] and in test [3] were 0.06 µM and above 10 µM, respectively.
In the case of `COc1cc2ncnc(Oc3ccc(NC(=O)Nc4ccc(C(F)(F)F)cc4)cc3)c2cc1OC`, in [3], the 50% inhibitory concentration (IC50) was above 10 µM.
In turn, `CCCCNC(=O)Nc1ccc(Oc2ncnc3cc(OC)c(OC)cc23)cc1` registered an IC50 in test [3] above 10 µM.
As for `COc1cc2ncnc(N(C)c3ccc(F)c(Cl)c3)c2cc1OC`, the Activity in test [1] is 0%; in test [4] it was 22%; in [6] it was 46%. Further, the values for the IC50 in [2], in [3] and in test [5] were above 10 µM, above 10 µM and 5.2 µM, respectively.
For the molecule `COc1cc2ncnc(Nc3ccc(Br)cc3F)c2cc1OC`, the Activity in test [1] is listed as 31%; in test [4], 1%; in test [6], 0%; in test [7] it was 0%. For the same molecule, the figures for the IC50 in test [2] and in test [3] were 1.65 µM and 5.7 µM, respectively.
In test [3], `COC(=O)Nc1ccc(Oc2ncnc3cc(OC)c(OC)cc23)cc1` had an IC50 above 10 µM.
For the molecule `COc1cc2ncnc(Oc3ccc(NC(=O)Nc4cccc5ccccc45)cc3)c2cc1OC`, the Activity in test [1] is given as 8%; in test [4], 8%; in [6], 9%; in [7], 17%. The IC50 in [3] was above 10 µM.
With `COc1cc2ncnc(Nc3ccc(NC(=O)Nc4ccc(F)c(Cl)c4)cc3)c2cc1OC`, the IC50 in [10] is 9.4 µM; in test [2], 4.3 µM; in test [3], above 10 µM; in [5] it was 6.2 µM; in [11] it was 7.7 µM; in test [8], 5.3 µM.
As to `COc1cc2ncnc(N(C)c3ccc(NC(=O)Nc4ccc(F)c(Cl)c4)cc3)c2cc1OC`, the results for the Activity in [1] and in test [6] were 35% and 29%, respectively. Further, the concentration for half-maximal inhibition (IC50) in test [2] and in test [3] was above 10 µM in each case.
Regarding `COc1cc2ncnc(Oc3ccc(NC(C)=O)cc3)c2cc1OC`, the Activity in [1] was 5%; in [4] it was 0%; in test [6] it was 3%; in test [7], 0%.
`COc1cc2ncnc(Oc3ccc(NC(=O)Nc4ccc(C)cc4)cc3)c2cc1OC`: the Activity in test [1] is 23%; in test [4], 23%; in test [6], 42%; in test [7], 17%. This molecule also showed an IC50 in test [3] above 10 µM.
In turn, `COc1cc2ncnc(Oc3ccc(NC(=O)Nc4ccc5ccccc5c4)cc3)c2cc1OC` registered an IC50 in test [3] above 10 µM.
On the same count and under the same terms, the figure for `COc1ccc(NC(=O)Nc2cccc(Oc3ncnc4cc(OC)c(OC)cc34)c2)cc1` is above 10 µM; for `COc1cc2ncnc(Oc3cccc(NC(=O)Nc4ccccc4)c3)c2cc1OC` it is above 10 µM.
Regarding `COc1cc2ncnc(Nc3ccc(NC(C)=O)cc3)c2cc1OC`, the Activity in test [1] was determined as 12%; in [4] it was 2%; in test [6] it was 0%; in test [7], 0%. The IC50 in test [2] and in [3] was above 10 µM throughout.
Take `COc1ccc(NC(=O)Nc2ccc(Nc3ncnc4cc(OC)c(OC)cc34)cc2)cc1`: the IC50 in test [3] is above 10 µM.
Same read-out and setting: the figure for `COc1cc2ncnc(Oc3ccc(NC(=O)Nc4ccc(Br)cc4)cc3)c2cc1OC` is above 10 µM.
Consider `COc1cc2ncnc(N(C)c3ccc(Br)cc3F)c2cc1OC`, for which the Activity in [1] is on record as 0%; in test [4] it was 15%; in test [6], 0%; in [7] it was 14%. Moreover, the IC50 in test [2] and in test [3] was above 10 µM throughout.
Consider `COc1cc2ncnc(Oc3cccc(Br)c3)c2cc1OC`, for which the Activity is recorded as 0% in test [1], 27% in test [4], 0% in test [6] and 6% in [7]. The molecule further returned a half-maximal inhibitory concentration (IC50) in [3] of 7.6 µM.
For `COc1cc2ncnc(Nc3ccc(F)c(Cl)c3)c2cc1OC`, the IC50 in test [10] worked out at 6.5 µM; in test [2] it was 5.3 µM; in [5], 5.7 µM; in test [11], 4.9 µM; in test [8], 4.5 µM.

For orientation: IC50 means the concentration that inhibits the measured activity by half.
